Here are results for two compounds from patent publication US9018244B2, “Benzopyran compounds, compositions and uses thereof” (Olema Pharmaceuticals, Inc., priority 2011, dated 2015).

Series [1] has as its system alkaline phosphatase (AP) activity in ECC-1 cells. Kind of series: Alkaline phosphatase (AP) assay in ECC-1 cells, agonist mode (without E2). It counts as cell-based, human. The conditions noted are these: without E2, 3 days. The source says:
FIG. 2. Alkaline phosphatase (AP) activity in ECC-1 cells correlates with the uterine wet weight of ovariectomized rats, as reported previously in Scafonas, et al. (*; Scafonas et al. “Agonist-like SERM effects on ER alpha-mediated repression of MMPI promoter activity predict in vivo effects on bone and uterus. J Steroid Biochem Mol. Biol. 2008 110(3-5):197-206) and Labrie, et al. (†; Labrie et al. “The combination of a novel selective estrogen receptor modulator with an estrogen protects the mammary gland and uterus in a rodent model: the future of postmenopausal women's health?” Endocrinology. 2003 144(11):4700-6). ECC-1 cells were treated with 500 pM 17β-estradiol (E2) or 1-5 nM anti-estrogens in hormone-depleted medium for 3 days. […] AP activity was measured by incubating a chromogenic AP substrate, p-nitrophenyl phosphate, at 40° C. for 40 minutes followed by measuring the absorbance at 405 nm. […]
FIG. 3. […] ECC-1 cells were treated with 100 nM anti-estrogens and AP activity was measured as described in FIG. 2. […] Note that OP-1038 was statistically different from Aragon Compound 28 (WO2011/156518), EM-343 and Gauthier compound Ia (p≦0.01 (exact p values stated in graph), calculated using Student's t-test).
(§1) Method for performing the alkaline phosphatase (AP) assay. […] Absorbance was read at 405 nm using a plate spectophotometer. […]

Series [2] is described as follows: Single dose oral pharmacokinetics study in female rats. It counts as in vivo, female Sprague Dawley rats. The method, then:
The oral bioavailabilty in rats of OP-1038 was determined in the following study. 3 rats (female Sprague Dawley, non-fasted) were dosed by oral gavage (5 mg/kg body weight) in 0.5% CMC in water with a comparison to intravenous dosing (3 mg/kg body weight). Plasma was collected at the following hourly time points from rats in both groups (0, 0.08, 1.0, 2.0, 4.0, 8.0, 16.0, 24.0, 48.0 and 96.0 hours post dosing). Plasma concentrations of OP-1038 were determined by HPLC.

Series [3] concerns E2-stimulated AP activity in ECC-1 cells. Kind of series: Inhibition of E2-stimulated AP activity in ECC-1 cells (antagonist mode). It counts as cell-based, human. The conditions noted are these: in the presence of 500 pM E2.
Text: FIG. 2. Alkaline phosphatase (AP) activity in ECC-1 cells correlates with the uterine wet weight of ovariectomized rats, as reported previously in Scafonas, et al. (*; Scafonas et al. “Agonist-like SERM effects on ER alpha-mediated repression of MMPI promoter activity predict in vivo effects on bone and uterus. J Steroid Biochem Mol. Biol. 2008 110(3-5):197-206) and Labrie, et al. (†; Labrie et al. “The combination of a novel selective estrogen receptor modulator with an estrogen protects the mammary gland and uterus in a rodent model: the future of postmenopausal women's health?” Endocrinology. 2003 144(11):4700-6). ECC-1 cells were treated with 500 pM 17β-estradiol (E2) or 1-5 nM anti-estrogens in hormone-depleted medium for 3 days. Note that the racemic mixture of acolbifene, EM-343, was used in the in vitro AP assay. AP activity was measured by incubating a chromogenic AP substrate, p-nitrophenyl phosphate, at 40° C. for 40 minutes followed by measuring the absorbance at 405 nm. Results were from a single representative experiment and reported as the mean percent induction relative to E2 from triplicate treatments, with error bars representing SEM.
FIG. 6. […] A) Comparison of inhibition of E2-stimulated AP activity of various benzopyran compounds (right) compared to published reference compounds (left). ECC-1 cells were treated with 100 nM anti-estrogens in the presence of 500 pM E2 and AP activity was measured as described in FIG. 2. Note that OP-1038 was statistically different from EM-343 and Gauthier compound Ia (p<0.0001 (exact p values stated in graph), calculated using Student's t-test). Results were from a single representative experiment and reported as the mean percent induction relative to E2 from triplicate treatments, with error bars representing SEM. […] IC50's were calculated using the least squares fit method. *Aragon Compound 28 was statistically different from equivalent dose of OP-1038 (p≦0.01, calculated using Student's t-test). […]
as §1

For series [4], the system named is MCF-7 HER2/neu Clone 18 xenograft. Kind of series: Mammary tumor xenograft study. Format: in vivo, ovariectomized athymic nude mice. Conditions: 100 mg/kg twice daily by oral gavage, mice implanted with estrogen pellets. The source says: FIG. 13. […] A) Percent change in tumor volume of human MCF-7 HER2/neu clone 18 xenografts in ovariectomized athymic nude mice implanted with estrogen pellets and treated with either tamoxifen (by oral gavage), fulvestrant (Faslodex) by s.c. injection, or OP-1074 (by oral gavage). B) Weights of the animals treated as above. C) Waterfall plot of final tumor volumes compared with volumes at the start of treatment.
The purpose of this study is to examine the ability of OP-1074, to slow or shrink a tamoxifen resistant tumor (MCF-7 HER2/neu Clone 18) xenograft growing on ovariectomized athymic nude mice under stimulation from exogenous estrogen. Clone 18 cells grown in culture are implanted along with 0.18 mg estradiol/90 day release pellets (Innovative Research, Sarasota Fla.) into 55 mice to initiate the experiment. When the tumors have reached 250 cubic millimeters the mice are divided into four groups of 10 mice each and dosing initiated. The four groups are:
1) No hormonal treatment—this group receives daily gavage with vehicle.
2) Tamoxifen citrate 100 mg/kg daily by oral gavage in vehicle.
3) Faslodex 100 mg/kg delivered daily by subcutaneous injection.
4) OP-1074 100 mg/kg twice daily by oral gavage in vehicle with the exception of two weekends in which dosing was once daily.

Where [5] appears, read: Sprague-Dawley, rat, plasma, Oral, 5.00 mg/kg, female S.D. rats.

Molecules are shown by their SMILES. “Also recorded” adds a separate entry of the source.

By bioavailability is commonly meant the share of a dose that reaches the circulation, judged against a reference dose that is usually intravenous. What is called Cmax is the maximum level reached in the sampled fluid or tissue. Usually AUC(0-inf) stands for total exposure, with the tail of the curve extrapolated. What is called MRT last is the average time that molecules of a dose stay in the body. As usually defined, the Tmax is the time at which the peak concentration occurs. In general, half-life refers to the time in which the quantity being followed falls by half. A higher half-life goes with slow decline.

`CC1=C(c2ccc(O)cc2)C(c2ccc(OCCN3CC[C@@H](C)C3)cc2)Oc2cc(O)ccc21` (stereo partly drawn) [OP-1038, 3-(4-hydroxyphenyl)-4-methyl-2-(4-{2-[(3R)-3-methylpyrrolidin-1-yl]ethoxy}phenyl)-2H-chromen-7-ol]: the “Estrogenic activity: AP activity, percent induction relative to E2” value in series [1] is “lacks estrogenic activity; also recorded: less estrogenic than Aragon Compound 28”. This compound registered an AUCextrap in series [2] (Oral, 5.00 mg/kg, female S.D. rats) of 10.1 ± 6.26%. Moreover, in series [2] (Sprague-Dawley, rat, plasma, Oral 5 mg/kg compared to intravenous 3 mg/kg, female S.D. rats, read-out: F % (Oral bioavailability)), the bioavailability is 18.9%. Besides, in series [2] (Sprague-Dawley, rat, plasma, Oral, 5.00 mg/kg, 0.5% CMC, female S.D. rats), the highest level (Cmax) was 24.8 ± 3 ng/mL. For the same compound, in series [2] (setting [5]), the AUC(0-inf) came out at 671 ± 44.8 ng·h/mL, the MRT last stood at 25.9 ± 3.37 h, the Tmax came out at 2.33 ± 1.53 h and the half-life was 1710 ± 696 min. In addition, in series [2] (Sprague-Dawley, rat, plasma, Oral, 5.00 mg/kg, female S.D. rats, read-out: AUClast (0 to 96 h)), the AUC(0-t) turned out to be 603 ± 46.7 ng·h/mL. Further, the “Oral bioavailability (in words)” value in series [2] (oral gavage 5 mg/kg in rats) is “orally bioavailable”. For the same compound, in series [3], the “Inhibition of E2-stimulated AP activity” value is “more potent than Aragon Cpd. 28; also recorded: inhibit E2-stimulated AP activity; also recorded: more anti-estrogenic than EM-343 and EM-652”.

As for `CC1=C(c2ccc(O)cc2)[C@H](c2ccc(OCCN3CC[C@@H](C)C3)cc2)Oc2cc(O)ccc21` [OP-1074, (2S)-3-(4-hydroxyphenyl)-4-methyl-2-(4-{2-[(3R)-3-methylpyrrolidin-1-yl]ethoxy}phenyl)-2H-chromen-7-ol], the “Estrogenic activity: AP activity, percent induction relative to E2” value in series [1] is given as “essentially no estrogenic activity; also recorded: lack estrogenic activity; also recorded: did not stimulate AP activity”. The “Tumor volume change of xenografts” value in series [4] is “rapid and complete regression”. Moreover, the “Inhibition of E2-stimulated AP activity” value in series [3] is “inhibit E2-stimulated AP activity; also recorded: more anti-estrogenic than EM-343 and EM-652; also recorded: inhibited E2-stimulated AP activity in a dose dependent manner”.
